Assays:
[1] = target: T1, recombinant human ETB R (Homo sapiens, UniProt P24530); assay type: binding; conditions: [125I]-ET-1 40 pM, 2 hours at 37° C., CHO-K1 cells, read-out: HERBA-B IC50
T1 construct: expressed in transfected cells; host or cells: CHO-K1 cells (membranes)
T1 sequence (P24530 27-442): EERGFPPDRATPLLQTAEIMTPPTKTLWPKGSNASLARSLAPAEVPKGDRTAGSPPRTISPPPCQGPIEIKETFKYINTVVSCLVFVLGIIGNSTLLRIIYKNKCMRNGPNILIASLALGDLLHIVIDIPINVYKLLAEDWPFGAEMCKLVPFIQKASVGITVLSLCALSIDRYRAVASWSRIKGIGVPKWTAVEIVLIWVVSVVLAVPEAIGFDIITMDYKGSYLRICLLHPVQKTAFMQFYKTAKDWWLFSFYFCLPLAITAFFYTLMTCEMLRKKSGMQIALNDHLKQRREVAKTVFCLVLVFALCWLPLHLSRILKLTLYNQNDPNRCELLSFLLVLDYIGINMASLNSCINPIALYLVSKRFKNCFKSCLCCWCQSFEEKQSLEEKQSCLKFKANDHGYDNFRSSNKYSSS
Procedure: (§1) Membranes were prepared from cultured cells by lysing cells in cold lysis buffer (5 mM HEPES, 2 mM EDTA, pH 7.4) and homogenizing with a Dounce "A" homogenizer. The homogenate was centrifuged at 30,000×g for 20 min at 4° C. […] Radioligand and competing ligands were prepared in binding buffer containing 20 mM Tris, 2 mM EDTA, and 0.1% BSA.

[2] = target: T2, recombinant human ETA R (Homo sapiens, UniProt P25101); assay type: binding; conditions: [125I]-ET-1 40 pM, 2 hours at 37° C., Ltk- cells, read-out: HERBA-A IC50
T2 construct: expressed in transfected cells; host or cells: Ltk- cells (membranes)
T2 sequence (P25101 21-427): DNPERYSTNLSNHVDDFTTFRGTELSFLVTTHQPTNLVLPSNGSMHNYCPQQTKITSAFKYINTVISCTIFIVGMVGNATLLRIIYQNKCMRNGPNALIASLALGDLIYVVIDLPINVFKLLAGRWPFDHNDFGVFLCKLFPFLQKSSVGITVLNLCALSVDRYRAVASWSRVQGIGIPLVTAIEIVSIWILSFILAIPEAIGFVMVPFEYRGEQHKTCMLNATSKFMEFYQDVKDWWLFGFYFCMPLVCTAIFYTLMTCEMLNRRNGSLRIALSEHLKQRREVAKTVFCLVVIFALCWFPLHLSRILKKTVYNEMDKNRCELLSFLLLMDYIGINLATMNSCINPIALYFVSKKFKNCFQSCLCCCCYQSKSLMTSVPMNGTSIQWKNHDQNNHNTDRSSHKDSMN
Procedure: as §1

[3] = target: T3, ETA (rabbit renal artery vascular smooth muscle cells) (Oryctolagus cuniculus, UniProt A5A8K3); assay type: binding; conditions: [125I]-ET-1 40 pM, 2 hours at 37° C.; read-out: ERBA-A IC50 (converted)
T3 construct: rabbit renal artery vascular smooth muscle cells (ERBA-A); endogenous in cells; host or cells: cultured rabbit renal artery vascular smooth muscle cells (membranes)
T3 sequence (A5A8K3 21-427): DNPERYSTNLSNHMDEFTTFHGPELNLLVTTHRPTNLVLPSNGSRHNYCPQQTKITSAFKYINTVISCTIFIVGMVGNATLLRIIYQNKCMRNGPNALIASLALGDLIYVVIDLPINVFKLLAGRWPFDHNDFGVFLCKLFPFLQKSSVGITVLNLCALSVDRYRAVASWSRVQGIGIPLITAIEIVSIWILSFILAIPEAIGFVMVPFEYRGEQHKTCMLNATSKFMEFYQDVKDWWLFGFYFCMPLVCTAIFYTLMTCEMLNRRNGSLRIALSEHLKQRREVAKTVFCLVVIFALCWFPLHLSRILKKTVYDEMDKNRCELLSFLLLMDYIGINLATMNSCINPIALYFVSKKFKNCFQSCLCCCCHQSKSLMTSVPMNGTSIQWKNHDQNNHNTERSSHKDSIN
Procedure: as §1, with “The compounds of Formula I are valuable antagonists of endothelin. […] Membranes” for “Membranes”, “BSA. Competing binding assays were initiated by combining membranes, [125I]-ET-1 (40 pM) and the competing ligand in a final volume of 250 uL and incubating for 2 hours at 37° C.” for “BSA.”

[4] = target: T4, rabbit femoral artery (ETA) (Oryctolagus cuniculus, UniProt A5A8K3); test: In vitro antagonism of ET-1 stimulated vasoconstriction (VERA-A) in the rabbit femoral artery (ETA); assay type: cell-based
T4 construct: Femoral and pulmonary arteries were isolated, cleaned of connective tissue, and cut into 4-mm rings; from tissue; host or cells: rabbit femoral artery rings, endothelium denuded
T4 sequence (A5A8K3 21-427): T3 sequence (A5A8K3 21-427)
Procedure: (§2) Male New Zealand rabbits were killed by cervical dislocation and exsanguination. Femoral and pulmonary arteries were isolated, cleaned of connective tissue, and cut into 4-mm rings. The endothelium was denuded by placing the rings over hypodermic tubing (32 gauge for femoral rings and 28 gauge for pulmonary rings, Small Parts, Inc, Miami, Fla.) and gently rolling them. […] Resting tension was adjusted to 3.0 g for femoral and 4.0 g pulmonary arteries; the rings were left for 90 minutes to equilibrate.

[5] = target: T5, rabbit pulmonary artery (ETB) (Oryctolagus cuniculus, UniProt Q9N0W7); test: Antagonism of sarafotoxin 6c stimulated vasoconstriction in the rabbit pulmonary artery (ETB) (VERA-B); assay type: cell-based
T5 construct: Femoral and pulmonary arteries were isolated, cleaned of connective tissue, and cut into 4-mm rings; from tissue; host or cells: rabbit pulmonary artery rings, endothelium denuded
T5 sequence (Q9N0W7 27-441): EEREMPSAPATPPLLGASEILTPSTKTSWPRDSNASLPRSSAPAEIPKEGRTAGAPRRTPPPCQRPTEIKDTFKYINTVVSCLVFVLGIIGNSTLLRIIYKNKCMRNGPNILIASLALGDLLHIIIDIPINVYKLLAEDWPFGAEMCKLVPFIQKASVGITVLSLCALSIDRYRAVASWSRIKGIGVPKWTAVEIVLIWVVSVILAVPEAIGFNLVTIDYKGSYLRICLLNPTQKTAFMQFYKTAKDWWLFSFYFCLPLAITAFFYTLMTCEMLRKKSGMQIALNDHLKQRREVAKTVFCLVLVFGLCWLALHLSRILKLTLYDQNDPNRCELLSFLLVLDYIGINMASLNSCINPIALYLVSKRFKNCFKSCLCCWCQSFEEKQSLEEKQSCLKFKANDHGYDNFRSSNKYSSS
Procedure: as §2

[6] = tested on: porcine pulmonary arteries; conditions: isolated, endothelium-intact porcine pulmonary arteries; cited from earlier work

| Compound | IC50 [1] | IC50 [2] | IC50 [3] | IC50 [4] | IC50 [5] | vasorelaxation [6] |
| --- | --- | --- | --- | --- | --- | --- |
| O=C(O)c1c(Sc2ccccc2)c2ccccc2n1-c1ccc2c(c1)OCO2 [Example 1, 1-Benzo-[1,3]dioxol-5-yl-3-phenylsulfanyl-1H-indole-2-carboxylic acid] | 6500 nM | 3200 nM | 1900 nM | – | – | – |
| COc1cccc(Sc2c(C(=O)O)n(Cc3ccc4c(c3)OCO4)c3cc(OC)c(OC)cc23)c1 [Example 2] | 1100 nM | – | 30 nM | 100 nM | – | – |
| COc1cccc(Sc2c(C(=O)O)n(Cc3ccc4c(c3)OCO4)c3ccccc23)c1 [Example 3, 1-Benzo[1,3]dioxol-5-ylmethyl-3-(3-methoxy-phenylsulfanyl)-1H-indole-2-carboxylic acid] | 7400 nM | 90 nM | 500 nM | – | – | – |
| COc1cccc(Sc2c(C(=O)O)n(Cc3ccccc3)c3ccccc23)c1 [Example 4, 1-Benzyl-3-(3-methoxy-phenylsulfanyl)-1H-indole-2carboxylic acid] | 1500 nM | 4600 nM | 7300 nM | – | – | – |
| O=C(O)c1c(Sc2ccc3c(c2)OCO3)c2ccccc2n1Cc1ccc2c(c1)OCO2 [Example 5, 1-Benzo[1,3]dioxol-5-ylmethyl-3-(benzo[1,3]dioxol-5-ylsulfanyl)-1H-indole-2-carboxylic acid] | 4500 nM | 380 nM | 570 nM | – | – | – |
| COc1cccc(Sc2c(C(=O)O)n(Cc3ccc4c(c3)OCO4)c3cc4c(cc23)OCO4)c1 [Example 6, 5-Benzo[1,3]dioxol-5-ylmethyl-7-(3-methoxy-phenylsulfanyl)-5H-[1,3]dioxolo[4,5-f]indole-6-carboxylic acid] | 710 nM | 84 nM | – | – | – | – |
| COc1cccc(Sc2c(C(=O)O)n(Cc3cc(OC)c4c(c3)OCO4)c3cc4c(cc23)OCO4)c1 [Example 7, 5-(7-Methoxy-benzo[1,3]dioxol-5-ylmethyl)-7-(3-methoxy-phenylsulfanyl)-5H-[1,3]dioxolo[4,5-f]indole-6carboxylic acid] | 2900 nM | 380 nM | – | – | – | – |
| COc1ccc(Sc2c(C(=O)O)n(Cc3ccc4c(c3)OCO4)c3cc4c(cc23)OCO4)cc1OC [Example 8, 5-Benzo [1,3]dioxo1-5-ylmethyl-7-(3,4-dimethoxyphenylsulfanyl)-5H-[1,3]dioxolo[4,5-f]indole-6-carboxylicacid] | 170 nM | 39 nM | – | 316 nM | 316 nM | – |
| COc1ccc(Sc2c(C(=O)O)n(Cc3cc(OC)c4c(c3)OCO4)c3cc4c(cc23)OCO4)cc1OC [Example 9, 7-(3,4-Dimethoxy-phenylsulfanyl)-5-(7-methoxy-benzo[1,3]dioxol-5-ylmethyl)-5H-[1,3]dioxolo[4,5-f]indole-6-carboxylic acid] | 420 nM | 170 nM | – | – | – | – |
| CCCOc1ccc2c(Sc3cccc(OC)c3)c(C(=O)O)n(Cc3ccc4c(c3)OCO4)c2c1 [Example 10, 1-Benzo[1,3]dioxol-5-ylmethyl-3-(3-methoxy-phenylsulfanyl)-6-propoxy-1H-indole-2-carboxylic acid] | 6700 nM | 590 nM | – | – | – | – |
| COc1cccc(Sc2c(C(=O)O)n(Cc3cc(OC)c4c(c3)OCO4)c3cc(OC)c(OC)cc23)c1 [Example 11, 5,6-Dimethoxy-1-(7-methoxy-benzo[1,3]dioxol-5-ylmethyl)-3-(3-methoxy-phenylsulfanyl)-1H-indole-2carboxylic acid] | 1100 nM | 58 nM | – | – | – | – |
| COc1ccc(Cn2c(C(=O)O)c(Sc3cccc(OC)c3)c3cc(OC)c(OC)cc32)cc1 [Example 12, 5,6-Dimethoxy-1-(4-methoxy-benzyl)-3-(3-methoxy-phenylsulfanyl)-1H-indole-2-carboxylic acid] | 870 nM | 160 nM | – | – | – | – |
| COc1cccc(Sc2c(C(=O)O)n(Cc3ccc4c(c3)OCO4)c3cc(OC)c(OCc4ccccc4)cc23)c1 [Example 13, 1-Benzo[1,3]dioxol-5-ylmethyl-5-benzyloxy-6-methoxy-3-(3-methoxy-phenylsulfanyl)-1H-indole-2-carboxylic acid] | 690 nM | 81 nM | – | – | – | – |
| COc1cc2c(Sc3cc(OC)c(OC)c(OC)c3)c(C(=O)O)n(Cc3ccc4c(c3)OCO4)c2cc1OC [Example 14, 1-Benzo[1,3]dioxol-5-ylmethyl-5,6-dimethoxy-3-(3,4,5-trimethoxy-phenylsulfanyl)-1H-indole-2-carboxylic acid] | – | – | – | 31.6 nM | 3160 nM | – |
| COc1cc2c(Sc3ccc4c(c3)OCO4)c(C(=O)O)n(Cc3ccc4c(c3)OCO4)c2cc1OCc1ccccc1 [Example 15, 1-Benzo[1,3]dioxol-5-ylmethyl-3-(benzo[1,3]dioxol-5-ylsulfanyl)-6-benzyloxy-5-methoxy-1H-indole-2-carboxylic acid] | 53 nM | 690 nM | – | – | – | – |
| COc1cccc(Sc2c(C(=O)O)n(Cc3ccc(OC)cc3OCC(=O)O)c3cc(OC)c(OC)cc23)c1 [Example 16, 1-(2-Carboxymethoxy-4-methoxy-benzyl)-5,6-dimethoxy-3-(3-methoxy-phenylsulfanyl)-1H-indole-2carboxylic acid] | 1200 nM | 480 nM | – | – | – | – |
| COc1cc2c(Sc3ccc4c(c3)OCO4)c(C(=O)O)n(Cc3ccc4c(c3)OCO4)c2cc1OC [Example 17, 1-Benzo[1,3]dioxol-5-ylmethyl-3-(benzo[1,3]dioxol-5-ylsulfanyl)-5,6-dimethoxy-1H-indole-2-carboxylic acid] | – | – | 631 nM | 50.1 nM | – | – |
| ET[1,3,11,15-A1a]: selective ETB agonist, linear analog (ASASSLMDKEAVYFAHLDIIW; Endothelin-1; UniProt P05305 53-73, looked up, variant C1A C3A C11A C15A) | – | – | – | – | – | caused vasorelaxation |
